Common to all, as to assay type: in vivo
Series [1] relates to Cabbage Looper (Trichoplusia ni, TRIPNI). Briefly: Bioassays on Cabbage Looper (CL), 128-well diet tray assay. The following applies: Trichoplusia ni. A digest of the protocol: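 Second-instar larvae (1–5 per well) placed on artificial diet surface-treated with 50 μg/cm^2 test molecule applied in 90:10 acetone-water and dried. Held at 25° C., 14:10 light-dark, for five to seven days. Percent mortality scored per well and averaged over eight wells.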

Series [2] concerns Yellow Fever Mosquito (Aedes aegypti, AEDSAE). As to conditions: for YFM rating: Table ABC / ABC-DP rating. The essentials:
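Compounds from DMSO master plates (4000 ppm stock) diluted in 90:10 water/acetone, then dispensed into six replicate plates and infested with ~1-day-old Aedes aegypti larvae in liver-powder water. Held covered at room temperature for 3 days; each well scored for larval mortality and graded on a rating scale.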

Series [3] relates to Beet Armyworm (Spodoptera exigua, LAPHEG). The experiment in a line: Bioassays on Beet Armyworm (BAW), 128-well diet tray assay. The following applies: Spodoptera exigua. A digest of the protocol:
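Eight diet wells per compound were treated at 50 μg/cm^2 (acetone-water 90:10), dried, then infested with 1–5 second-instar larvae each. After five to seven days at 25 °C under 14:10 photoperiod, mortality was scored and averaged across wells.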

The mark [4] stands for this setting: Cabbage Looper, rating class, read-out: CL.
Where [5] appears, read: Yellow Fever Mosquito, rating class.
Setting [6] is: Beet Armyworm, rating class, read-out: BAW.
[7] abbreviates: Table ABC: Biological Results, species CL, read-out: CL.
Where [8] appears, read: Table ABC: Biological Results, species YFM.
[9] abbreviates: Table ABC: Biological Results, species BAW, read-out: BAW.
[10] abbreviates: Cabbage Looper, Table ABC / ABC-DP rating, read-out: CL rating.
Setting [11] is: Beet Armyworm, Table ABC / ABC-DP rating, read-out: BAW rating.

SMILES strings stand for the structures. Like-named read-outs stand apart in the source and are kept apart here.

With `CCC(=O)Nc1c(F)ccc(NC(=O)c2cc(NC(=O)[C@H]3[C@H](c4cccc(C(F)(F)F)c4)C3(Cl)Cl)ccc2Cl)c1F` [F1679, 2-Chloro-5-((1R,3R)-2,2-dichloro-3-(3-(trifluoromethyl)phenyl)cyclopropane-1-carboxamido)-N-(2,4-difluoro-3-propionamidophenyl)benzamide], the pest or weed control at 50 µg/cm2 in series [1] (setting [4]) and in series [3] (setting [6]) was 50 to 100% throughout. Besides, the YFM result in series [2] (setting [5]) is recorded as “A (80–100)”.

Consider `O=C(Nc1ccc(F)cc1F)c1cc(NC(=O)[C@H]2[C@H](c3cc(C(F)(F)F)cc(Cl)c3F)C2(Cl)Cl)ccc1Cl` (relative stereo) [F1050, trans-2-Chloro-5-(2,2-dichloro-3-(3-chloro-2-fluoro-5-(trifluoromethyl)phenyl)cyclopropane-1-carboxamido)-N-(2,4-difluorophenyl)benzamide], for which the pest or weed control at 50 µg/cm2 in series [1] (setting [7]) and in series [3] (setting [9]) was 50 to 100% in each case. For the same compound, in series [2] (setting [8]), the YFM entry is “A (80–100)”.

Regarding `CC(=O)Nc1cc(NC(=O)c2cc(NC(=O)[C@H]3[C@H](c4ccc(Cl)c(Cl)c4)C3(Cl)Cl)ccc2F)c(F)cc1F` [F1511, N-(5-Acetamido-2,4-difluorophenyl)-5-((1R,3R)-2,2-dichloro-3-(3,4-dichlorophenyl)cyclopropane-1-carboxamido)-2-fluorobenzamide], the pest or weed control at 50 µg/cm2 in series [1] (setting [4]) and in series [3] (setting [6]) was 50 to 100% throughout. Further, the YFM entry in series [2] (setting [5]) is given as “A (80–100)”.

Consider `O=C(NNc1cccc(C(F)(F)F)c1)c1cc(NC(=O)[C@H]2[C@H](c3cc(Cl)cc(Cl)c3)C2(Cl)Cl)ccc1Cl` (relative stereo) [F2572, trans-2,2-Dichloro-N-(4-chloro-3-(2-(3-(trifluoromethyl)phenyl)hydrazine-1-carbonyl)phenyl)-3-(3,5-dichlorophenyl)cyclopropane-1-carboxamide], for which the mortality at 50 µg/cm2 in series [1] (168 h, second instar larvae, 50 μg/cm^2 of test molecule on artificial diet, 25° C., five to seven days, average of eight wells, read-out: CL % Control (or Mortality) rating) is 50 to 100%; in series [3] (168 h, second instar larvae, 50 μg/cm^2 of test molecule on artificial diet, 25° C., five to seven days, average of eight wells, read-out: BAW % Control (or Mortality) rating), 50 to 100%. Besides, the pest or weed control at 50 µg/cm2 in series [1] (setting [10]) and in series [3] (setting [11]) was 50 to 100% in each case. Moreover, the YFM rating result in series [2] (Yellow Fever Mosquito) was “A (80–100)”. In series [2] (about 1 day-old larvae, 4000 ppm master solution diluted with 90:10 water/acetone, 15 μL per well plus 220 μL larval mixture, 3 days, mortality), the “YFM % Control (or Mortality) rating” value is “A (80–100)”.

Regarding `Nc1c(F)ccc(NC(=O)c2cc(NC(=O)[C@H]3[C@H](c4cccc(S(F)(F)(F)(F)F)c4)C3(Cl)Cl)ccc2Cl)c1F` (relative stereo) [F1143, trans-N-(3-Amino-2,4-difluorophenyl)-2-chloro-5-(2,2-dichloro-3-(3-(pentafluoro-λ^6-sulfanyl)phenyl)cyclopropane-1-carboxamido)benzamide], the pest or weed control at 50 µg/cm2 in series [1] (setting [7]) and in series [3] (setting [9]) was 50 to 100% each time. For the same compound, in series [2] (setting [8]), the YFM entry is listed as “A (80–100)”.

Regarding `Cc1cc(NCc2ccc([N+](=O)[O-])cc2)ccc1NC(=O)c1cc(NC(=O)[C@H]2[C@H](c3cc(Cl)cc(Cl)c3)C2(Cl)Cl)ccc1Cl` (relative stereo) [F1166, trans-2-Chloro-5-(2,2-dichloro-3-(3,5-dichlorophenyl)cyclopropane-1-carboxamido)-N-(2-methyl-4-((4-nitrobenzyl)amino)phenyl)benzamide], the pest or weed control at 50 µg/cm2 in series [1] (setting [7]) and in series [3] (setting [9]) was 50 to 100% throughout. Further, the YFM entry in series [2] (setting [8]) is on record as “A (80–100)”.

For the compound `O=C(Nc1c(F)ccc(NC(=O)c2cc(NC(=O)[C@H]3[C@H](c4ccc(Cl)c(Cl)c4)C3(Cl)Cl)ccc2Cl)c1F)c1ccco1` [F1416, N-(3-(2-Chloro-5-((1R,3R)-2,2-dichloro-3-(3,4-dichlorophenyl)cyclopropane-1-carboxamido)benzamido)-2,6-difluorophenyl)furan-2-carboxamide], the pest or weed control at 50 µg/cm2 in series [1] (setting [4]) and in series [3] (setting [6]) was 50 to 100% each time. Moreover, the YFM result in series [2] (setting [5]) is recorded as “A (80–100)”.

For `O=C(Nc1c(F)cc(F)cc1Br)c1cc(NC(=O)[C@H]2[C@H](c3cc(Cl)cc(Cl)c3)C2(Cl)Cl)ccc1Cl` (relative stereo) [F1309, trans-N-(2-Bromo-4,6-difluorophenyl)-2-chloro-5-(2,2-dichloro-3-(3,5-dichlorophenyl)cyclopropane-1-carboxamido)benzamide], the pest or weed control at 50 µg/cm2 in series [1] (setting [7]) and in series [3] (setting [9]) was 50 to 100% each time. Besides, the YFM entry in series [2] (setting [8]) is on record as “A (80–100)”.

Consider `COCC(C)NNC(=O)c1cc(NC(=O)[C@H]2[C@H](c3cc(Cl)cc(Cl)c3)C2(Cl)Cl)ccc1Cl` (relative stereo) [F2551, trans-2,2-Dichloro-N-(4-chloro-3-(2-(1-methoxypropan-2-yl)hydrazine-1-carbonyl)phenyl)-3-(3,5-dichlorophenyl)cyclopropane-1-carboxamide], for which the pest or weed control at 50 µg/cm2 in series [1] (setting [10]) and in series [3] (setting [11]) was 50 to 100% each time. The YFM rating entry in series [2] (Yellow Fever Mosquito) is reported as “A (80–100)”.

With `O=C(NCCNC(=O)C(F)(F)C(F)(F)F)c1cc(NC(=O)[C@H]2[C@H](c3cc(Cl)cc(Cl)c3)C2(Cl)Cl)ccc1Cl` (relative stereo) [F2096, trans-2-Chloro-5-(2,2-dichloro-3-(3,5-dichlorophenyl)cyclopropane-1-carboxamido)-N-(2-(2,2,3,3,3-pentafluoropropanamido)ethyl)benzamide], the pest or weed control at 50 µg/cm2 in series [1] (setting [10]) and in series [3] (setting [11]) was 50 to 100% throughout. Further, in series [2] (Yellow Fever Mosquito), the YFM rating entry was “B (More than 0 – Less than 80)”.

Take `O=C(Nc1ccc(F)cc1)c1cc(NC(=O)[C@H]2[C@H](c3ccc(F)c(Cl)c3)C2(Cl)Cl)cc(C(F)(F)F)c1Cl` (relative stereo) [F1214, trans-2-Chloro-5-(2,2-dichloro-3-(3-chloro-4-fluorophenyl)cyclopropane-1-carboxamido)-N-(4-fluorophenyl)-3-(trifluoromethyl)benzamide]: the pest or weed control at 50 µg/cm2 in series [1] (setting [7]) and in series [3] (setting [9]) was 50 to 100% each time. Besides, the YFM result in series [2] (setting [8]) is on record as “A (80–100)”.

For the compound `O=C(CCNC(=O)c1cc(NC(=O)[C@H]2[C@H](c3cc(Cl)cc(Cl)c3)C2(Cl)Cl)ccc1Cl)NCCC(F)(F)F` (relative stereo) [F2092, trans-2-Chloro-5-(2,2-dichloro-3-(3,5-dichlorophenyl)cyclopropane-1-carboxamido)-N-(3-oxo-3-(3,3,3-trifluoropropylamino)propyl)benzamide], the pest or weed control at 50 µg/cm2 in series [1] (setting [10]) and in series [3] (setting [11]) was 50 to 100% throughout. Also, the YFM rating result in series [2] (Yellow Fever Mosquito) is recorded as “B (More than 0 – Less than 80)”.

In the case of `Nc1c(F)ccc(NC(=O)c2cc(NC(=O)[C@H]3[C@@H](c4cc(Cl)c(F)c(Cl)c4)C3(Cl)Cl)ccc2Cl)c1F` (relative stereo) [F1182, cis-N-(3-Amino-2,4-difluorophenyl)-2-chloro-5-(2,2-dichloro-3-(3,5-dichloro-4-fluorophenyl)cyclopropane-1-carboxamido)benzamide], the pest or weed control at 50 µg/cm2 in series [1] (setting [7]) and in series [3] (setting [9]) was 50 to 100% each time. Further, in series [2] (setting [8]), the YFM result was “A (80–100)”.

Regarding `COc1c(F)cc(NC(=O)[C@H]2[C@H](c3ccc(F)c(Cl)c3)C2(Cl)Cl)cc1C(=O)NCC(F)(F)C(F)(F)F` (relative stereo) [F2060, trans-5-(2,2-Dichloro-3-(3-chloro-4-fluorophenyl)cyclopropane-1-carboxamido)-3-fluoro-2-methoxy-N-(2,2,3,3,3-pentafluoropropyl)benzamide], the pest or weed control at 50 µg/cm2 in series [1] (setting [10]) and in series [3] (setting [11]) was 50 to 100% in each case. In addition, in series [2] (Yellow Fever Mosquito), the YFM rating entry is on record as “A (80–100)”.

Source of the values: patent US20250228239A1, “MOLECULES HAVING PESTICIDAL UTILITY, AND INTERMEDIATES, COMPOSITIONS, AND PROCESSES, RELATED THERETO” (priority 2024, published 2025).
